# Patent US20090275667A1, “USE OF ALLICIN AS PRESERVATIVE, AS DISINFECTANT, AS ANTIMICROBIAL OR AS BIOCIDAL AGENT” (Stone Island Holdings Ltd, priority 2003, published 2009)
# Columns and labels:
# [1] = system: Enterococcus hirae (University of Brighton isolate); assay: Modified Kelsey-Sykes test; assay type: cell-based; design: key: CG = Confluent growth
# Text: Allicin can be used to displace or supplement existing harmful forms of disinfectant/biocide such as chlorine, sodium hypochlorite, ozone and per-acetic acid all of which can have an adverse effect on the environment. UV radiation is also used for disinfection but power and general running costs are high. Laboratory studies have been conducted on our behalf using allicin on aqueous suspensions of bacterial species commonly used as indicators of the effectiveness of water and wastewater disinfection. To this effect, identified isolates from the faecal coliform and streptococcus groups, namely, Escherichia coli (NCTC 8156) and Enterococcus hirae (University of Brighton isolate) were used in all experiments. […]
# Stock suspensions of Escherichia coli (NCTC 8156) and Enterococcus hirae (University of Brighton isolate) were cultivated in Nutrient Broth No. 2 from freeze dried isolates. Prior to each experiment, serial dilutions of the suspensions were enumerated by the spread plate method on Nutrient Agar and subsequent incubation at 37 deg C.
# Initial experimental procedures were based on the methods set out in an established UK protocol (BS 6905: 1987). The Kelsy-Sykes methodology was developed as a guide to the concentrations of disinfectants which may be recommended for use under “dirty” (wastewater/sewage) conditions. It is therefore a suitable means of establishing the effectiveness of a disinfectant against a wastewater containing particulate and dissolved contaminants in addition to micro-organisms.
# Therefore, with regard to wastewater/sewage considerations, the protocol was adapted. Under the revised methodology, a sample was taken from the bacterial suspension/biocide mix after the prescribed contact time and plated out onto solid media so that a colony count could be made (see Tables 1 and 2).
# P. l. larvae = assay: Minimum bactericidal concentration by plating out MIC cultures; assay type: cell-based, Paenibacillus larvae subsp. larvae; conditions: range of 1000 ppm to 25 ppm
# Procedure: Positive controls contained the antibiotic Tylosin (Tylan® 50, Elanco Animal Health Inc., IN) and negative controls contained no antibiotics. Bacterial (P. l. larvae, P. l. pulviphaciens) or fungal (A. apis, A. aggregata) spores (100 μl of approximately 10^8-10^9 spores/ml) were added to a 2.5 ml of bacterial or fungal liquid medium containing serial dilutions of allicin. Cultures were incubated in a shaker at 35° C. and 215 rpm. The optical densities of cultures (OD 600) were recorded 24 h and 48 h post inoculation, depending on the growth rate of the microbial species. […] Minimum bactericidal concentration values (NBC) were determined for allicin by plating out 100 μl of bacterial cultures derived from the MIC assay. Plates were incubated 24 h and 48 h at 33° C. and 6% CO2 to observe microbial growth.
# Ent. Hirae = assay: Agar inhibition test; assay type: cell-based, Enterococcus hirae; conditions: equivalent to 0.0225% w/v
# P. alvei = assay: Investigation into bacteriostatic or bactericidal effects (Study 2); assay type: cell-based, Paenibacillus alvei; conditions: conclusion from subculture into fresh media
# Procedure: (§1) Where there was no growth in a replicate, at the end of one week the culture was plated out for single colonies on the appropriate agar. This was to determine whether the test item had bactericidal activity, where all the bacterial cells are killed, or bacteriostatic action, where the cells are unable to replicate in the presence of the substance, but will grow when it is removed. A further test, where 0.5 ml of the broth was transferred into 4.5 ml fresh broth (giving a 1:10 dilution) was also undertaken. There would still be some Allicin in the broth, but it should be present at a low enough concentration for growth not to be affected. Where growth occurred in the absence of Allicin, the broth was examined microscopically and plated out for single colonies to confirm the identity of the bacterium.
# P. larvae subsp. larvae = assay: as above; assay type: cell-based, Paenibacillus larvae subsp. larvae; design: key to Growth in broth after exposure to test Item at concentration indicated: *: Growth present in one replicate only
# Procedure: as §1
# Ascosphaera aggregata = assay: MIC by broth microdilution, bee pathogens; assay type: cell-based; conditions: range 1000 ppm to 0.25 ppm
# Text: We tested allicia (Allisure™ Liquid) activity against several species of entomopathogenic bacteria (Paenibacillus larvae subsp. larvae, Paenibacillus larvae subsp. pulvifaciens) and fungi (Ascosphaera apis and Ascosphaera aggregata) using broth microdilution method to determine minimum inhibitory concentration (MIC) and the agar diffusion test (Kirby-Bauer) to determine zone of inhibition. Bacterial spores were isolated from the diseased honey bee larval samples. […]
# Fungal spores (Ascosphaera apis) were collected from black honey bee mummies and (Ascosphaera aggregata) spores were collected from the diseased leaf cutter bees. […] The fungal colonies were analyzed by microscopic preparations of aerial mycelia and fungal spore cysts. […]
# Positive controls contained the antibiotic Tylosin (Tylan® 50, Elanco Animal Health Inc., IN) and negative controls contained no antibiotics. […] The optical densities of cultures (OD 600) were recorded 24 h and 48 h post inoculation, depending on the growth rate of the microbial species. […] Minimum bactericidal concentration values (NBC) were determined for allicin by plating out 100 μl of bacterial cultures derived from the MIC assay. […]
# [2] = allicin conc. 0.9 % (w/v), 10 mins
# [3] = allicin conc. 0.9 % (w/v), 20 mins
# [4] = allicin conc. 0.9 % (w/v), 30 mins
# [5] = allicin conc. 1.08 % (w/v), 10 mins
# [6] = allicin conc. 1.08 % (w/v), 20 mins
# [7] = allicin conc. 1.26 % (w/v), 10 mins
# [8] = allicin conc. 1.26 % (w/v), 20 mins
# [9] = allicin conc. 1.62 % (w/v), 10 mins
# [10] = allicin conc. 1.62 % (w/v), 20 mins
structure (smiles),measurement,setting,value
"C=CCS[S+]([O-])CC=C (centres unmarked) [allicin, Allicin]",Numbers of colony forming units killed,[1]; [2],CG
same,Percentage reduction in colony forming units,[1]; [2],CG
same,Numbers of colony forming units killed,[1]; [3],CG
same,Percentage reduction in colony forming units,[1]; [3],CG
same,Numbers of colony forming units killed,[1]; [4],CG
same,Percentage reduction in colony forming units,[1]; [4],CG
same,Numbers of colony forming units killed,[1]; [5],CG
same,Percentage reduction in colony forming units,[1]; [5],CG
same,Numbers of colony forming units killed,[1]; [6],CG
same,Percentage reduction in colony forming units,[1]; [6],CG
same,Percentage reduction in colony forming units,"[1]; allicin conc. 1.08 % (w/v), 30 mins",77%
same,Numbers of colony forming units killed,[1]; [7],CG
same,Percentage reduction in colony forming units,[1]; [7],CG
same,Numbers of colony forming units killed,[1]; [8],CG
same,Percentage reduction in colony forming units,[1]; [8],CG
same,Percentage reduction in colony forming units,"[1]; allicin conc. 1.26 % (w/v), 30 mins",91%
same,Percentage reduction in colony forming units,"[1]; allicin conc. 1.4 % (w/v), 10 mins",CG
same,Percentage reduction in colony forming units,"[1]; allicin conc. 1.4 % (w/v), 20 mins",CG
same,Percentage reduction in colony forming units,"[1]; allicin conc. 1.4 % (w/v), 30 mins",87%
same,Numbers of colony forming units killed,"[1]; allicin conc. 1.44 % (w/v), 10 mins",CG
same,Numbers of colony forming units killed,"[1]; allicin conc. 1.44 % (w/v), 20 mins",CG
same,Numbers of colony forming units killed,[1]; [9],CG
same,Percentage reduction in colony forming units,[1]; [9],CG
same,Numbers of colony forming units killed,[1]; [10],CG
same,Percentage reduction in colony forming units,[1]; [10],CG
same,Percentage reduction in colony forming units,"[1]; allicin conc. 1.62 % (w/v), 30 mins",89%
same,bacteriostatic or bactericidal activity,P. l. larvae,only bacteriostatic (no bactericidal) activity
same,allicin concentration at which inhibition was demonstrated on agar plates,Ent. Hirae,≤ 0.225 g/L
same,bacteriostatic or bactericidal effect,P. alvei,did not kill all bacteria
same,Growth in broth after exposure to test Item at concentration indicated,"P. larvae subsp. larvae; 50 ppm, 10% inoculum transferred to fresh broth",*
same,bacteriostatic or bactericidal effect,P. larvae subsp. larvae; conclusion from subculture after exposure,a bactericidal effect appeared to be observed
same,MIC,Ascosphaera aggregata,250 µg/mL
